Tests used:
Caspase 3/7 [1] = experiment: Caspase 3/7 activity (Caspase-Glo 3/7) in NF2 knockout cell line; conditions: 18 hrs
mesothelioma = experiment: Treatment of mesothelioma patients carrying mutations in NF2 or BAP1 genes; format: in vivo; conditions: mesothelioma patients with NF2 or BAP1 mutation; 1.3 mg/m^2 intravenous bolus twice in a week, 21-d cycle, up to eight cycles
Excerpt: Mesothelioma patients can be screened for mutation(s) in any of these genes by molecular genetic testing, which is done by the mutation scanning and gene duplication/deletion testing. For example, mutation scanning is done by polymerase chain reaction amplification of the DNA of patients compared to control DNA, and DNA with altered DNA segments may be subjected to the further testing, such as sequence analysis to identify the sequence alterations. Gene duplication/deletion testing is done by quantitative polymerase chain reaction, long-range polymerase chain reaction, multiplex ligation-dependent probe amplification (MLPA), and chromosomal microarray (CMA) that includes the gene/chromosome segment for detection. Molecular genetic testing confirms about the mutation in the NF2 gene or that in the BAP1 gene. […] Bortezomib at a dose of 1.3 mg/m^2 via intravenous bolus for 3 to 5 seconds is given to patients, twice in a week for at least 2 weeks (days 1, 4, 8 and 11) of a 21-d cycle for up to eight cycles.

[2] = tested on: NF2 knockout cell line 1293-1; experiment: Cell proliferation/cytotoxicity assay (MTS / CellTitre Blue) in NF2 knockout cell line
in vitro = conditions: human, wild type haploid (HAP1) cells
Caspase 3/7 [3] = experiment: Caspase 3/7 activity (Caspase-Glo 3/7) in control haploid cells; conditions: 18 hrs
20S proteasome [4] = target: T1, 20S proteasome (Homo sapiens, UniProt P28074); experiment: 20S proteasome activity (chymotrypsin-like, Suc-LLVY-AMC) in wild type haploid (HAP1) cells; format: cell-based; conditions: concentration dependent manner; 18 hrs
Experimental: (§1) The cells were then washed in PBS (Phosphate buffered saline) and lysed in a buffer containing non-ionic detergent and ATP. The cell lysate was centrifuged at 15,000 g for 30 minutes at 4° C. The supernatant was collected, aliquoted and stored at −80° C. until assay. Chymotrypsin-like peptidase activity of 20S proteasome was measured by using 40 μM Succinyl-Leu-Leu-Val-Tyr-AMC (Boston Biochem: S-280), a fluorogenic peptide substrate, along with 12 nM of recombinant PA28α (Boston Biochem: E-381 or R&D Systems Cat. # E-381-100), in an assay buffer containing 20 mM HEPES pH 7.4 and 0.5 mM EDTA. 20S proteasome cleaved the peptide substrate to release the free fluorophore AMC. […] The compound carfilzomib was used as an internal control for the assay (NF2 cells treated with carfilzomib). Similar assay was also performed with the wild type haploid (HAP1) cells for 18 hrs at different bortezomib concentrations ranging from 1 nM to 300 nM (i.e. 1 nM, 3 nM, 10 nM, 30 nM, 100 nM and 300 nM). The reaction was monitored by measuring the fluorescence through Flex Station 3 (Molecular Devices) or Envision (PerkinElmer) (excitation/emission: 353/442 nm), for 1 hour a 37° C. under kinetic setting. Substrate turnover was estimated as a standard curve generated using standard AMC. The results of 20S proteasome assay are described in FIGS. 1, 2, 3, 4 & 5.

[5] = tested on: wild type haploid (HAP1) cells; experiment: Cell proliferation/cytotoxicity assay (MTS / CellTitre Blue) in control HAP1 cell line
20S proteasome [6] = target: T1, 20S proteasome; experiment: 20S proteasome activity (chymotrypsin-like, Suc-LLVY-AMC) in NF2 knockout cells; format: cell-based
Experimental: as §1

LATS1 = experiment: Western blot analysis for LATS1 protein in NF2 knockout cell line; format: cell-based; conditions: 3, 10 & 30 nM at 18 hrs; compared to cells not treated
Experimental: Cells from NF2 knockout cell line 1293-1 cells control Haploid cell line (control wild type cells) are seeded in 6 well plates. […] LATS1 protein was assayed by Western blot (Chemiluminescence) method and both NF2 cell lines are used in the analysis. […] Cell lysates were analysed by western blotting and LATS1 was detected using anti-lats1 antibody (Abcam, ab70561); GAPDH protein levels were assayed using anti-GAPDH antibody as endogenous control. The objective was to quantify the up-regulation/down-regulation of proteins (LATS1) involved in Hippo signaling pathway in NF2 knockout cell line compared to the control cell line. Another objective is to observe the effect of bortezomib treatment in the NF2 knockout cell line, following assays using the Western Blot/WES System.

[7] = 0.1 nM to 100 nM, 6 hrs and 12 hrs

CC(C)C[C@H](NC(=O)[C@H](Cc1ccccc1)NC(=O)c1cnccn1)B(O)O [bortezomib, [(1R)-3-methyl-1-({(2S)-3-phenyl-2[(pyrazin-2-ylcarbonyl)amino]propanoyl}amino)butyl]boronic acid]
caspase activity (apoptosis) in the NF2 knockout cell line (Caspase 3/7 [1]; 3 nM onwards): significant increase in the caspase activity | delay in tumor progression (mesothelioma): 50% | reduction in tumor size (mesothelioma): 25% | cytotoxicity in the NF2 knockout cell line [2, 7]: 10-15% | cytotoxicity in the NF2 knockout cell line (in words) [2, 7]: do not show any significant cytotoxicity | Average % Cytotoxicity in the NF2 knockout cells ([2]; bortezomib 0.1 nM, 6 hrs): −5.18% | Average % Cytotoxicity in the NF2 knockout cells ([2]; bortezomib 0.1 nM, 12 hrs): −21.57% | Average % Cytotoxicity in the NF2 knockout cells ([2]; bortezomib 0.1 nM, 18 hrs): −16.92% | Average % Cytotoxicity in the NF2 knockout cells ([2]; bortezomib 0.1 nM, 24 hrs): −63.43% | Average % Cytotoxicity in the NF2 knockout cells ([2]; bortezomib 0.3 nM, 6 hrs): −5.03% | Average % Cytotoxicity in the NF2 knockout cells ([2]; bortezomib 0.3 nM, 12 hrs): −32.20% | Average % Cytotoxicity in the NF2 knockout cells ([2]; bortezomib 0.3 nM, 18 hrs): −26.59% | Average % Cytotoxicity in the NF2 knockout cells ([2]; bortezomib 0.3 nM, 24 hrs): −71.10% | Average % Cytotoxicity in the NF2 knockout cells ([2]; bortezomib 1 nM, 6 hrs): −1.49% | Average % Cytotoxicity in the NF2 knockout cells ([2]; bortezomib 1 nM, 12 hrs): −28.42% | Average % Cytotoxicity in the NF2 knockout cells ([2]; bortezomib 1 nM, 18 hrs): −25.10% | Average % Cytotoxicity in the NF2 knockout cells ([2]; bortezomib 1 nM, 24 hrs): −66.58% | Average % Cytotoxicity in the NF2 knockout cells ([2]; bortezomib 3 nM, 6 hrs): −0.78% | Average % Cytotoxicity in the NF2 knockout cells ([2]; bortezomib 3 nM, 12 hrs): −24.79% | Average % Cytotoxicity in the NF2 knockout cells ([2]; bortezomib 3 nM, 18 hrs): −19.23% | Average % Cytotoxicity in the NF2 knockout cells ([2]; bortezomib 3 nM, 24 hrs): −68.56% | Average % Cytotoxicity in the NF2 knockout cells ([2]; bortezomib 10 nM, 6 hrs): 8.10% | Average % Cytotoxicity in the NF2 knockout cells ([2]; bortezomib 10 nM, 12 hrs): −11.84% | Average % Cytotoxicity in the NF2 knockout cells ([2]; bortezomib 10 nM, 18 hrs): 14.52% | Average % Cytotoxicity in the NF2 knockout cells ([2]; bortezomib 10 nM, 24 hrs): 29.86% | Average % Cytotoxicity in the NF2 knockout cells ([2]; bortezomib 30 nM, 6 hrs): 14.05% | Average % Cytotoxicity in the NF2 knockout cells ([2]; bortezomib 30 nM, 12 hrs): 17.18% | Average % Cytotoxicity in the NF2 knockout cells ([2]; bortezomib 30 nM, 18 hrs): 35.71% | Average % Cytotoxicity in the NF2 knockout cells ([2]; bortezomib 30 nM, 24 hrs): 37.83% | Average % Cytotoxicity in the NF2 knockout cells ([2]; bortezomib 60 nM, 6 hrs): 16.44% | Average % Cytotoxicity in the NF2 knockout cells ([2]; bortezomib 60 nM, 12 hrs): 16.07% | Average % Cytotoxicity in the NF2 knockout cells ([2]; bortezomib 60 nM, 18 hrs): 38.70% | Average % Cytotoxicity in the NF2 knockout cells ([2]; bortezomib 60 nM, 24 hrs): 43.98% | Average % Cytotoxicity in the NF2 knockout cells ([2]; bortezomib 100 nM, 6 hrs): 10.89% | Average % Cytotoxicity in the NF2 knockout cells ([2]; bortezomib 100 nM, 12 hrs): 15.71% | Average % Cytotoxicity in the NF2 knockout cells ([2]; bortezomib 100 nM, 18 hrs): 39.72% | Average % Cytotoxicity in the NF2 knockout cells ([2]; bortezomib 100 nM, 24 hrs): 45.16% | toxicity in the NF2 knockout cell line (in words) ([2]; higher concentration (>30 nM), 18 hrs and 24 hrs): slight toxicity was observed | cytotoxicity at 6 h, 0.1 nM (in vitro): 2.64% | cytotoxicity at 6 h, 0.3 nM (in vitro): 4.7% | cytotoxicity at 6 h, 1 nM (in vitro): 5.65% | cytotoxicity at 6 h, 3 nM (in vitro): 1.58% | cytotoxicity at 6 h, 10 nM (in vitro): 0.99% | cytotoxicity at 6 h, 30 nM (in vitro): 7.63% | cytotoxicity at 6 h, 60 nM (in vitro): 9.63% | cytotoxicity at 6 h, 100 nM (in vitro): 6.08% | cytotoxicity at 12 h, 0.1 nM (in vitro): 3.91% | cytotoxicity at 12 h, 0.3 nM (in vitro): 2.62% | cytotoxicity at 12 h, 1 nM (in vitro): 0.2% | cytotoxicity at 12 h, 3 nM (in vitro): 1.1% | cytotoxicity at 12 h, 10 nM (in vitro): 5.12% | cytotoxicity at 12 h, 30 nM (in vitro): 24.9% | cytotoxicity at 12 h, 60 nM (in vitro): 31.9% | cytotoxicity at 12 h, 100 nM (in vitro): 26.9% | cytotoxicity at 18 h, 0.1 nM (in vitro): 6.83% | cytotoxicity at 18 h, 0.3 nM (in vitro): 6.9% | cytotoxicity at 18 h, 1 nM (in vitro): 5.78% | cytotoxicity at 18 h, 3 nM (in vitro): 7.83% | cytotoxicity at 18 h, 10 nM (in vitro): 7.56% | cytotoxicity at 18 h, 30 nM (in vitro): 26.3% | cytotoxicity at 18 h, 60 nM (in vitro): 31% | cytotoxicity at 18 h, 100 nM (in vitro): 32.7% | cytotoxicity at 24 h, 0.1 nM (in vitro): 11.2% | cytotoxicity at 24 h, 0.3 nM (in vitro): 11.4% | cytotoxicity at 24 h, 1 nM (in vitro): 10.9% | cytotoxicity at 24 h, 3 nM (in vitro): 16.6% | cytotoxicity at 24 h, 10 nM (in vitro): 44.8% | cytotoxicity at 24 h, 30 nM (in vitro): 75% | cytotoxicity at 24 h, 60 nM (in vitro): 77.4% | cytotoxicity at 24 h, 100 nM (in vitro): 78.9% | apoptosis/Caspase 3/7 activation in the control haploid cells (Caspase 3/7 [3]; 3 nM onwards, compared to NF2 knockout cell line): minimal increase in apoptosis/Caspase 3/7 activation | proteasome activity in the wild type haploid cell line (20S proteasome [4]): showed inhibition in proteasome activity | toxicity in the wild type haploid (HAP1) cell line (in words) ([5]; 6 hrs): did not show any significant toxicity | toxicity in the wild type haploid (HAP1) cell line (in words) ([5]; higher concentration (>30 nM), 12, 18 & 24 hrs): toxicity was observed | proteasome activity in the NF2 knockout cell line (dose dependence) (20S proteasome [6]; 1 nM to 300 nM): dose dependent decrease in proteasome activity | proteasome activity in the NF2 knockout cell line (20S proteasome [6]; from 3 nM onwards, post 6 hrs, 12 hrs, 18 hrs and 24 hrs incubation): decreased significantly | comparison of % inhibition in proteasome activity, NF2 knockout cells vs wild type haploid cells (20S proteasome [6]; post 18 hrs incubation (FIG. 5)): greater inhibition in the NF2 knockout cells | levels of LATS1 protein in NF2 knockout cell line (Western blot) (LATS1): increased levels of LATS1

CN[C@@H]1C[C@H]2O[C@@](C)([C@@H]1OC)n1c3ccccc3c3c4c(c5c6ccccc6n2c5c31)C(=O)NC4 [Staurosporine]
apoptosis in the Caspase 3/7 assay, positive reference control, NF2 knockout cell line (Caspase 3/7 [1]; Staurosporine 1 & 10 μM): induced apoptosis was also observed | apoptosis in the Caspase 3/7 assay, positive reference control, wild type haploid cell line (Caspase 3/7 [3]; Staurosporine 1 & 10 μM): induced apoptosis was also observed
